The text below walks through data of ChEMBL document CHEMBL1201862, “PubChem BioAssay data set” (2004).

Assay in all cases: NCI-60 cell line screen, 48 h
For experiment [1], the system named is 786-0.
Experiment [2] relates to CAKI-1.
The subject of experiment [3] is CCRF-CEM.
Experiment [4] concerns EKVX.
Experiment [5] relates to HCT-15.
Experiment [6] concerns HOP-62.
Experiment [7] deals with Hs-578T.
In experiment [8] the test system is M14.
Experiment [9] has as its system Malme-3M.
Experiment [10] relates to OVCAR-8.
In experiment [11] the test system is RPMI-8226.
In experiment [12] the test system is SF-268.
Experiment [13] deals with SF-295.
Experiment [14] concerns SF-539.
Experiment [15] has as its system SW-620.
Experiment [16] relates to T47D.
The test system of experiment [17] is TK-10.
Experiment [18] deals with HT-29.
Experiment [19] concerns NCI-H522.

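Values below derive from 48-hour exposures of cells grown in 96-well plates, with endpoints linearly interpolated between the two concentrations bracketing the appropriate inhibition level. The concentration for 50% growth inhibition is given as GI50.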 Calls of active or inactive are those of the source. Rule as the data show it: active = GI50 up to about 1.1 µM and inactive = higher.

For the compound `CCC(C)[C@H](NC(=O)[C@H](Cc1ccccc1)NC(=O)N(CC)c1ccccc1)C(=O)N[C@@H](CC(C)C)C(=O)OC` (stereo partly drawn), the GI50 in experiment [1] was 40.6 µM (inactive); in experiment [2], 58.5 µM (inactive); in experiment [3] it was 21.4 µM (inactive); in experiment [4], 49.3 µM (inactive); in [5], 38.6 µM; in experiment [6] it was 33 µM (inactive). Moreover, the GI50 was 63.1 µM (inactive) in experiment [7]; 37.6 µM (inactive) in experiment [8]; 31 µM (inactive) in [9]; 34 µM (inactive) in [10]; 8.93 µM (inactive) in experiment [11]; 36.5 µM (inactive) in [12]. For the same compound, the GI50 in [13] was 59.7 µM (inactive); in experiment [14], 24.2 µM (inactive); in [15], 31.6 µM (inactive); in [16], 43.5 µM (inactive); in experiment [17] it was 37.9 µM (inactive).

In the case of `CCOC(=O)c1nnsc1N/N=C\c1ccc([N+](=O)[O-])cc1`, the GI50 in [1] was 80 µM (inactive); in [3] it was > 100 µM (inactive); in experiment [4] it was > 100 µM (inactive); in experiment [5], greater than 100 µM; in experiment [6], 60 µM (inactive); in [18], > 100 µM (inactive). For the same compound, the GI50 in experiment [7] is > 100 µM (inactive); in [8] it was > 100 µM (inactive); in [9] it was > 100 µM (inactive); in [19], > 100 µM (inactive); in experiment [10], 54.7 µM (inactive); in [11], > 100 µM (inactive). The GI50 is 77.4 µM (inactive) in experiment [12]; > 100 µM (inactive) in experiment [13]; > 100 µM (inactive) in [15]; > 100 µM (inactive) in [16]; > 100 µM (inactive) in experiment [17].

Consider `N#CC1(c2ccccc2)CCN(C2(c3ccccc3)CCCCC2)CC1`, for which the GI50 in experiment [1] is 94.2 µM (inactive); in [2], > 100 µM (inactive); in experiment [3] it was > 100 µM (inactive); in [4] it was > 100 µM (inactive); in [5], greater than 100 µM; in experiment [6], > 100 µM (inactive). For the same compound, the GI50 in [18] was > 100 µM (inactive); in experiment [7], 44 µM (inactive); in [8] it was > 100 µM (inactive); in [9] it was 8.83 µM (inactive); in experiment [10] it was > 100 µM (inactive); in experiment [11], > 100 µM (inactive). Further, the GI50 in experiment [12], in experiment [13], in experiment [15], in [16] and in [17] was > 100 µM (inactive) each time.

For `COc1cc2c(cc1OC)C(=O)/C(=C/c1ccc(Cl)cc1)CC2`, the GI50 in experiment [1] was > 10 µM (inactive); in [2], > 10 µM (inactive); in experiment [3] it was > 10 µM (inactive); in experiment [4], > 10 µM (inactive); in experiment [5] it was greater than 10 µM; in experiment [6], > 10 µM (inactive). For the same compound, the GI50 in experiment [18], in [7], in experiment [8], in experiment [9], in experiment [10] and in [11] was > 10 µM (inactive) throughout. Besides, the GI50 in experiment [12], in experiment [13], in experiment [14], in [15], in [16] and in experiment [17] was > 10 µM (inactive) throughout.

Take `COc1cc2oc(-c3ccc4c(c3)OCO4)c(OC)c(=O)c2c(OC)c1OC`: the GI50 in experiment [1] was 94 µM (inactive); in experiment [2], 19.1 µM (inactive); in [3], > 100 µM (inactive); in experiment [4], 66.5 µM (inactive); in [5], greater than 100 µM; in experiment [6], 27.4 µM (inactive). Moreover, the GI50 was > 100 µM (inactive) in experiment [18]; 52.2 µM (inactive) in experiment [7]; > 100 µM (inactive) in experiment [8]; > 100 µM (inactive) in experiment [9]; > 100 µM (inactive) in experiment [19]; 53.3 µM (inactive) in experiment [10]. The GI50 was 27.9 µM (inactive) in [12]; > 100 µM (inactive) in experiment [13]; 45.2 µM (inactive) in experiment [14]; > 100 µM (inactive) in experiment [15]; > 100 µM (inactive) in [16]; 32.8 µM (inactive) in experiment [17].

For the compound `O=c1[nH]nc(Cc2ccc(Cl)cc2)n1Nc1ccccc1`, the GI50 in experiment [1] was 73.6 µM (inactive); in experiment [2] it was > 100 µM (inactive); in experiment [3] it was > 100 µM (inactive); in [4], > 100 µM (inactive); in experiment [5] it was greater than 100 µM; in [6], 79.6 µM (inactive). Moreover, the GI50 in experiment [18] was > 100 µM (inactive); in [7], 47.9 µM (inactive); in [8], > 100 µM (inactive); in experiment [9] it was > 100 µM (inactive); in [10] it was > 100 µM (inactive); in experiment [13], > 100 µM (inactive). For the same compound, the GI50 in experiment [14] is 80 µM (inactive); in experiment [15], > 100 µM (inactive); in experiment [16], > 100 µM (inactive); in experiment [17], > 100 µM (inactive).

Regarding `C[C@@H]1CCC2C(C)(C)C(/C=C\C=O)C3(C)OC213` (stereo partly drawn), the GI50 in experiment [1] is 28.8 µM (inactive); in experiment [2], > 100 µM (inactive); in [4], 37.8 µM (inactive); in [5], 25.4 µM; in [6] it was 38.9 µM (inactive); in experiment [18], 26.4 µM (inactive). For the same compound, the GI50 was 21.5 µM (inactive) in experiment [7]; 65.2 µM (inactive) in experiment [8]; 24.5 µM (inactive) in experiment [9]; 46 µM (inactive) in experiment [19]; 20.2 µM (inactive) in experiment [10]; 28.7 µM (inactive) in experiment [11]. Besides, the GI50 in experiment [12] is 27.3 µM (inactive); in experiment [13], 35.1 µM (inactive); in [15], 40.9 µM (inactive); in experiment [17], 72.6 µM (inactive).

Consider `O=C(O)C1C2C=CC(C2)C1c1ccccc1` (stereo not drawn), for which the GI50 is > 100 µM (inactive) in experiment [1]; > 100 µM (inactive) in experiment [2]; > 100 µM (inactive) in [3]; > 100 µM (inactive) in experiment [4]; greater than 100 µM in experiment [5]; > 100 µM (inactive) in experiment [6]. For the same compound, the GI50 in experiment [18], in experiment [7], in [8], in experiment [9], in experiment [10] and in experiment [11] was > 100 µM (inactive) in each case. The GI50 in [12], in [13], in experiment [14], in [15], in experiment [16] and in experiment [17] was > 100 µM (inactive) each time.

On to `NC(C(F)(F)F)(C(F)(F)F)P(=O)(c1ccccc1)c1ccccc1`, for which the GI50 in [1] was > 100 µM (inactive); in experiment [2], > 100 µM (inactive); in experiment [3], > 100 µM (inactive); in experiment [4] it was > 100 µM (inactive); in experiment [5] it was greater than 100 µM; in experiment [6], > 100 µM (inactive). Moreover, the GI50 in experiment [18], in [7], in [8], in [9], in [10] and in experiment [11] was > 100 µM (inactive) throughout. The GI50 in [12], in experiment [13], in experiment [14], in experiment [15], in experiment [16] and in experiment [17] was > 100 µM (inactive) in each case.

Take `O=C1NC(=S)N/C1=C\c1ccc(Br)s1`: the GI50 is > 100 µM (inactive) in experiment [1]; 70.6 µM (inactive) in [2]; 25.3 µM (inactive) in experiment [3]; 10.3 µM (inactive) in [4]; 91.2 µM in experiment [5]; > 100 µM (inactive) in experiment [6]. Moreover, the GI50 in experiment [18] is 85.1 µM (inactive); in experiment [7] it was 34 µM (inactive); in experiment [9] it was > 100 µM (inactive); in experiment [19], 82.8 µM (inactive); in [11] it was 27.7 µM (inactive); in experiment [12] it was > 100 µM (inactive). Further, the GI50 in experiment [13] is > 100 µM (inactive); in [15], > 100 µM (inactive); in [17], 52 µM (inactive).

As to `CCN1CCCC(Nc2cc(C)nc(NC(=N)Nc3ccc(Cl)c(Cl)c3)n2)C1` (stereo not drawn), the GI50 was 1.54 µM (inactive) in experiment [1]; 1.56 µM (inactive) in [2]; 0.63 µM (active) in experiment [3]; 2.86 µM (inactive) in experiment [4]; 1.74 µM in experiment [5]; 1.43 µM (inactive) in [6]. For the same compound, the GI50 was 3.06 µM (inactive) in experiment [18]; 2.02 µM (inactive) in experiment [7]; 0.254 µM (active) in [8]; 2.39 µM (inactive) in [9]; 1.24 µM (inactive) in experiment [19]; 0.455 µM (active) in experiment [11]. Also, the GI50 in [12] was 1.96 µM (inactive); in experiment [13] it was 1.07 µM (active); in [14], 1.88 µM (inactive); in experiment [17], 1.69 µM (inactive).

Turning to `Cc1cc(S(=O)(=O)Nc2nc(N)n(-c3cnc4ccccc4n3)n2)c(S)cc1Cl`, the GI50 is > 100 µM (inactive) in experiment [1]; 95.3 µM (inactive) in experiment [2]; 37.1 µM (inactive) in [3]; > 100 µM (inactive) in experiment [4]; greater than 100 µM in experiment [5]; 69.5 µM (inactive) in experiment [6]. Besides, the GI50 in [18] was > 100 µM (inactive); in experiment [7] it was 78.5 µM (inactive); in [8] it was > 100 µM (inactive); in [9], > 100 µM (inactive); in [19], > 100 µM (inactive); in experiment [10] it was > 100 µM (inactive). Further, the GI50 in [12] is 85.3 µM (inactive); in experiment [14], > 100 µM (inactive); in experiment [15] it was > 100 µM (inactive); in experiment [16], > 100 µM (inactive); in experiment [17], > 100 µM (inactive).
